Tests used:
Conditions in all cases: incubation time: 72 h
BT-549 [1] = test: normalised response (% of control), CellTox Green; higher = less cell death (100 = DMSO, 0 = benzethonium chloride kill control)
Method in brief: (§1)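 Each entry is the normalised signal at a single concentration within a series. The series comprised 5 concentrations in 10-fold steps over a compound-specific 10,000-fold range, placed in 384-well plates into which breast cancer cell lines were seeded as 20 µl suspension and incubated 72 h. CellTox Green (485/520 nm) fluorescence and then CellTiter-Glo luminescence were read, with signals normalised per plate to 0.1 % DMSO (100) and a positive kill control (0).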

CAL-120 [2] = test: as above
Method in brief: as §1

CAL-148 [3] = test: as above
Method in brief: as §1

CAL-51 [4] = test: as above
Method in brief: as §1

CAL-85-1 [5] = test: as above
Method in brief: as §1

DU-4475 [6] = test: as above
Method in brief: as §1

HCC1143 [7] = test: as above
Method in brief: as §1

HCC1599 [8] = test: as above
Method in brief: as §1

HDQ-P1 [9] = test: as above
Method in brief: as §1

Hs578T [10] = test: as above
Method in brief: as §1

MCF-10A [11] = test: as above
Method in brief: as §1

MDA-MB-231 [12] = test: as above
Method in brief: as §1

MDA-MB-436 [13] = test: as above
Method in brief: as §1

MDA-MB-453 [14] = test: as above
Method in brief: as §1

MFM-223 [15] = test: as above
Method in brief: as §1

BT-474 [16] = test: normalised response (% of control), CellTiter-Glo; higher = more viable cells (100 = DMSO, 0 = benzethonium chloride kill control)
Protocol: (§2)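 DSRT, 72 h incubation, CellTox Green / CellTiter-Glo readout. Signal is normalised to DMSO and benzethonium chloride controls. Value is the normalised response at the highest dose.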

BT-549 [17] = test: as above
Protocol: as §2

CAL-120 [18] = test: as above
Protocol: as §2

CAL-148 [19] = test: as above
Protocol: as §2

CAL-51 [20] = test: as above
Protocol: as §2

CAL-85-1 [21] = test: as above
Protocol: as §2

DU-4475 [22] = test: as above
Protocol: as §2

HCC1143 [23] = test: as above
Protocol: as §2

HCC1599 [24] = test: as above
Protocol: as §2

HCC1937 [25] = test: as above
Protocol: as §2

HDQ-P1 [26] = test: as above
Protocol: as §2

Hs578T [27] = test: as above
Protocol: as §2

MCF-10A [28] = test: as above
Protocol: as §2

MDA-MB-231 [29] = test: as above
Protocol: as §2

MDA-MB-436 [30] = test: as above
Protocol: as §2

MDA-MB-453 [31] = test: as above
Protocol: as §2

MDA-MB-468 [32] = test: as above
Protocol: as §2

MFM-223 [33] = test: as above
Protocol: as §2

SK-BR-3 = test: as above
Protocol: as §2

BT-474 [34] = test: normalised response (% of control), CellTox Green; higher = less cell death (100 = DMSO, 0 = benzethonium chloride kill control)
Method in brief: as §1

HCC1937 [35] = test: as above
Method in brief: as §1

MDA-MB-468 [36] = test: as above
Method in brief: as §1

Compound | normalised response (BT-549 [1]) | normalised response (CAL-120 [2]) | normalised response (CAL-148 [3]) | normalised response (CAL-51 [4]) | normalised response (CAL-85-1 [5]) | normalised response (DU-4475 [6]) | normalised response (HCC1143 [7]) | normalised response (HCC1599 [8]) | normalised response (HDQ-P1 [9]) | normalised response (Hs578T [10]) | normalised response (MCF-10A [11]) | normalised response (MDA-MB-231 [12]) | normalised response (MDA-MB-436 [13]) | normalised response (MDA-MB-453 [14]) | normalised response (MFM-223 [15]) | normalised response (BT-474 [16]) | normalised response (BT-549 [17]) | normalised response (CAL-120 [18]) | normalised response (CAL-148 [19]) | normalised response (CAL-51 [20]) | normalised response (CAL-85-1 [21]) | normalised response (DU-4475 [22]) | normalised response (HCC1143 [23]) | normalised response (HCC1599 [24]) | normalised response (HCC1937 [25]) | normalised response (HDQ-P1 [26]) | normalised response (Hs578T [27]) | normalised response (MCF-10A [28]) | normalised response (MDA-MB-231 [29]) | normalised response (MDA-MB-436 [30]) | normalised response (MDA-MB-453 [31]) | normalised response (MDA-MB-468 [32]) | normalised response (MFM-223 [33]) | normalised response (SK-BR-3) | normalised response (BT-474 [34]) | normalised response (HCC1937 [35]) | normalised response (MDA-MB-468 [36])
CS(=O)(=O)c1ccc(C2=C(c3ccccc3)C(=O)OC2)cc1 [Rofecoxib] (10000 nM) | 102% | 105% | 98.8% | 98.7% | 84.6% | 101% | 114% | 97.2% | 112% | 128% | 102% | 108% | 77.7% | 66.6% | 68.2% | 94.5% | 103% | 102% | 119% | 71.8% | 100% | 100% | 105% | 100% | 106% | 99.8% | 110% | 109% | 100% | 111% | 98.6% | 113% | 102% | 106% |  |  | 
O=C(CCCCCCC(=O)Nc1ccc([C@H]2O[C@@H](CSc3nc(-c4ccccc4)c(-c4ccccc4)o3)C[C@@H](c3ccc(CO)cc3)O2)cc1)NO [Tubacin] (10000 nM) | 71.7% | 75.1% | 81.1% | 53.8% | -3.19% | 92.1% | 27.7% | 95.2% | 102% | 85.2% | 110% | -21.5% | 89.9% | 39% | 81.7% | 13.9% | 42% | 51.8% | 73.5% | 35.4% | 18.4% | 70.7% | 37.1% | 13.7% | 32.3% | 68.6% | 51.4% | 52.4% | 8.62% | 57.5% | 6.07% | 17.2% | 38.2% | 45.4% | 73.7% | 54.5% | 98.2%
CC(=O)Nc1ccc(C(=O)Nc2ccccc2N)cc1 [Tacedinaline] (1000 nM) | 114% | 101% | 97.9% | 96.2% | 92.3% | 99% | 75.3% | 98.2% | 104% | 99.3% | 77.3% | 111% | 107% | 98.2% | 105% | 95.2% | 107% | 105% | 95.2% | 113% | 103% | 98% | 100% | 120% | 97.2% | 98.5% | 92.1% | 99.7% | 95.7% | 95% | 98.7% | 108% | 99.7% | 98.9% | 97.7% | 83.6% | 58.9%
N#CCNC(=O)c1ccc(-c2ccnc(Nc3ccc(N4CCOCC4)cc3)n2)cc1 [Momelotinib] (10000 nM) | 31.3% | 97.4% | 100% | 85.1% | 54.6% | 95.5% | 98% | 90% | 100% | 87% | 90.5% | 19% | 78% | 70.6% | 97.5% | 55.8% | 23.5% | 50.2% | 97.3% | 58% | 43.7% | 64.8% | 66.6% | 96.8% | 84.5% | 87.1% | 41.4% | 43% | 46.8% | 71% | 104% | 22.2% | 67.2% | 55.1% | 101% | 102% | 22%
O=C(O)c1ccc(-c2c[nH]c3ncc(-c4ccccc4)cc23)cc1C1CCCC1 (10000 nM) | 99.3% | 99.2% | 91.6% | 63.4% | 119% | 97.5% | 117% | 94% | 91% | 117% | 83.6% | 92.8% | 57.9% | 102% | 66.2% | 86.7% | 74.5% | 94.5% | 94.4% | 92.7% | 99.3% | 86.2% | 97.8% | 105% | 105% | 107% | 89% | 97.1% | 94.1% | 84.2% | 105% | 57% | 95% | 58.7% | 95.4% |  | 90.1%
CCC(C)(C)C(=O)O[C@H]1C[C@@H](C)C=C2C=C[C@H](C)[C@H](CC[C@@H]3C[C@@H](O)CC(=O)O3)[C@H]21 [Simvastatin] (10000 nM) | 98.6% | 77.4% | 104% | 46.8% | 84.3% | 99% |  |  | 82.2% |  | 23.2% | -117% | 51.8% | 104% | 104% | 47.2% | 87.7% | 91.8% | 102% | 78.4% | 84.4% | 94.2% | 95.9% | 103% | 92.6% | 65% | 91.2% | 23.9% | 30% | 84.9% | 93.3% | 83.2% | 97.9% | 98.9% | 99.9% | 95.6% | 
CC(C)Cn1cnc2c(N)nc3ccccc3c21 [Imiquimod] (2500 nM) | 72.1% | 96.6% | 100% | 106% | 83.7% | 99.3% | 104% | 101% |  | 130% | 88.2% | 96.5% | 102% | 93.9% |  | 96% | 98% | 95.8% | 106% | 92.8% | 104% | 103% | 94.5% | 94.9% | 99.6% | 103% | 105% | 95% | 98.2% | 106% | 105% | 109% | 103% | 106% | 101% | 106% | 
COc1cc2ncnc(Nc3ccc(F)c(Cl)c3)c2cc1NC(=O)/C=C/CN1CCCCC1 [Dacomitinib] (1000 nM) | 74.8% | 98.7% | 96.7% | 109% | 38.7% | 99.1% | 75.7% | 99.1% | 94.1% | 115% | 96.8% | 103% |  | 96.3% | 99.5% | 86.8% | 80.9% | 95.6% | 83.9% | 116% | 46.8% | 97.8% | 94% | 105% | 84.3% | 68.1% | 90.7% | 35.8% | 84.5% | 84.4% | 56.2% | 65.3% | 93.1% | 21.1% |  |  | 121%
CCCCCCCCCCCCCCCCCCOP(=O)([O-])OC1CC[N+](C)(C)CC1 [Perifosine] (2500 nM) | 56.7% | 107% | 96.9% | 96.4% | 97.4% | 95.7% | 67% | 99.3% | 109% | 128% | 117% | 106% | 78% | 83.9% | 90.3% | 104% | 111% | 104% | 79.9% | 80.7% | 102% | 95.9% | 99.1% | 86.3% | 52.7% | 84.7% | 96.9% | 63.7% | 104% | 87.9% | 98.6% | 97.5% | 92.6% | 60.4% | 95.6% | 108% | 133%

From the supplement of paper PMC4862054
